Results: the NIST ThermoML archive (doi:10.1021/je5008372)
± gives the expanded uncertainty stated by the source.

Assays:
[1] = mn = molality of the nth substance listed, in mol/kg; conditions: 86.8 kPa, Liquid; for viscosity: Capillary tube (Ostwald / Ubbelohde) method; for speed of sound: Sing-around technique in a fixed-path interferometer; for mass density: Vibrating tube method
[2] = refractive index (Na D-line) (dimensionless); mn = molality of the nth substance listed, in mol/kg; conditions: 86.8 kPa, Liquid, Standard Abbe refractometry
[3] = 86.8 kPa, Liquid; for viscosity: Capillary tube (Ostwald / Ubbelohde) method; for speed of sound: Sing-around technique in a fixed-path interferometer; for mass density: Vibrating tube method
[4] = refractive index (Na D-line) (dimensionless); conditions: 86.8 kPa, Liquid, Standard Abbe refractometry

## CCCCn1cc[n+](C)c1.[Br-] [1-butyl-3-methylimidazolium bromide] + CC#N
[1]; 288.15 K, m1 = 0.1046
  viscosity: 0.4 ± 0.01 mPa·s
  speed of sound: 1323.5 ± 1.2 m/s
  mass density: 796.218 ± 0.17 kg/m3
[1]; 288.15 K, m1 = 0.2021
  viscosity: 0.421 ± 0.01 mPa·s
  speed of sound: 1327.1 ± 1.2 m/s
  mass density: 803.662 ± 0.2 kg/m3
[1]; 288.15 K, m1 = 0.2996
  viscosity: 0.44 ± 0.01 mPa·s
  speed of sound: 1330.3 ± 1.2 m/s
  mass density: 810.75 ± 0.17 kg/m3
[1]; 298.15 K, m1 = 0.1046
  viscosity: 0.363 ± 0.01 mPa·s
  speed of sound: 1283.2 ± 1.2 m/s
  mass density: 785.312 ± 0.18 kg/m3
[1]; 298.15 K, m1 = 0.2021
  viscosity: 0.38 ± 0.01 mPa·s
  speed of sound: 1287.1 ± 1.2 m/s
  mass density: 792.989 ± 0.17 kg/m3
[1]; 298.15 K, m1 = 0.2996
  viscosity: 0.398 ± 0.01 mPa·s
  speed of sound: 1290.3 ± 1.2 m/s
  mass density: 800.167 ± 0.17 kg/m3
[1]; 308.15 K, m1 = 0.1046
  viscosity: 0.331 ± 0.01 mPa·s
  speed of sound: 1243.2 ± 1.2 m/s
  mass density: 774.491 ± 0.18 kg/m3
[1]; 308.15 K, m1 = 0.2021
  viscosity: 0.346 ± 0.01 mPa·s
  speed of sound: 1247.2 ± 1.2 m/s
  mass density: 782.263 ± 0.18 kg/m3
[1]; 308.15 K, m1 = 0.2996
  viscosity: 0.361 ± 0.01 mPa·s
  speed of sound: 1250.6 ± 1.2 m/s
  mass density: 789.528 ± 0.18 kg/m3
[1]; 318.15 K, m1 = 0.1046
  viscosity: 0.304 ± 0.01 mPa·s
  speed of sound: 1203.1 ± 1.2 m/s
  mass density: 763.59 ± 0.19 kg/m3
[1]; 318.15 K, m1 = 0.2021
  viscosity: 0.318 ± 0.01 mPa·s
  speed of sound: 1207.3 ± 1.2 m/s
  mass density: 771.427 ± 0.19 kg/m3
[1]; 318.15 K, m1 = 0.2996
  viscosity: 0.331 ± 0.01 mPa·s
  speed of sound: 1210.8 ± 1.2 m/s
  mass density: 778.947 ± 0.18 kg/m3
[2]; 288.15 K, m1 = 0.1046
  refractive index: 1.3492 ± 0.004
[2]; 288.15 K, m1 = 0.2021
  refractive index: 1.3528 ± 0.004
[2]; 288.15 K, m1 = 0.2996
  refractive index: 1.3557 ± 0.004
[2]; 298.15 K, m1 = 0.1046
  refractive index: 1.3449 ± 0.004
[2]; 298.15 K, m1 = 0.2021
  refractive index: 1.3479 ± 0.004
[2]; 298.15 K, m1 = 0.2996
  refractive index: 1.3509 ± 0.004
[2]; 308.15 K, m1 = 0.1046
  refractive index: 1.3402 ± 0.004
[2]; 308.15 K, m1 = 0.2021
  refractive index: 1.3429 ± 0.004
[2]; 308.15 K, m1 = 0.2996
  refractive index: 1.3462 ± 0.004
[2]; 318.15 K, m1 = 0.1046
  refractive index: 1.3359 ± 0.004
[2]; 318.15 K, m1 = 0.2021
  refractive index: 1.3381 ± 0.004
[2]; 318.15 K, m1 = 0.2996
  refractive index: 1.3402 ± 0.004

## CC#N [acetonitrile]
[3]; 288.15 K
  viscosity: 0.388 ± 0.01 mPa·s
  speed of sound: 1319.1 ± 1.2 m/s
  mass density: 787.395 ± 0.15 kg/m3
[3]; 298.15 K
  viscosity: 0.344 ± 0.01 mPa·s
  speed of sound: 1278.6 ± 1.2 m/s
  mass density: 776.615 ± 0.16 kg/m3
[3]; 308.15 K
  viscosity: 0.313 ± 0.01 mPa·s
  speed of sound: 1238.3 ± 1.2 m/s
  mass density: 765.81 ± 0.17 kg/m3
[3]; 318.15 K
  viscosity: 0.289 ± 0.01 mPa·s
  speed of sound: 1198.2 ± 1.2 m/s
  mass density: 754.851 ± 0.17 kg/m3
[4]; 288.15 K
  refractive index: 1.3461 ± 0.004
[4]; 298.15 K
  refractive index: 1.3412 ± 0.004
[4]; 308.15 K
  refractive index: 1.3371 ± 0.004
[4]; 318.15 K
  refractive index: 1.3327 ± 0.004
